Results on 25 compounds are retold here after patent US11548868B2, “Heterocyclic compounds, compositions comprising heterocyclic compound, and methods of use thereof” (JS INNOPHARM (SHANGHAI) LTD, priority 2017, dated 2023).

In experiment [1] the target is T1, IDO1 in Hela cancer cells (Homo sapiens, UniProt P14902).
T1 construct: endogenous in cells; host or cells: Hela cancer cells stimulated with human IFN-γ
The experiment is described as follows: IDO1 Cellular Assay (kynurenine production in IFN-γ stimulated Hela cancer cells). Format: cell-based. The following applies: human IFN-γ 50 ng/mL, 48 hours incubation, kynurenine at 490 nm. The method, boiled down: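 HeLa cells stimulated with 50 ng/mL IFN-γ (final) and treated 48 h with compound (0–25 μM final, 0.25% DMSO). Supernatant kynurenine measured after TCA hydrolysis and p-dimethylaminobenzaldehyde reaction at 490 nm; inhibition vs DMSO control, IC50 by non-linear regression.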

Experiment [2] concerns the target T2, TDO2 in A172 cancer cells (Homo sapiens, UniProt P48775).
T2 construct: endogenous in cells; host or cells: A172 cancer cells
The experiment is described as follows: TDO2 Cellular Assay (kynurenine production in A172 cancer cells). Type of experiment: cell-based. The following applies: L-Trp 1 mM, 24 hours incubation, kynurenine at 490 nm. The method, boiled down: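 Kynurenine output of A172 cells was read colorimetrically at 490 nm (Ehrlich reagent after TCA hydrolysis at 50 °C). Cells had 1 mM L-Trp plus compound at 0–25 μM in 0.25% DMSO for 24 h; IC50 values were fitted non-linearly from percent inhibition relative to vehicle.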

T2 sequence (P48775 whole entry): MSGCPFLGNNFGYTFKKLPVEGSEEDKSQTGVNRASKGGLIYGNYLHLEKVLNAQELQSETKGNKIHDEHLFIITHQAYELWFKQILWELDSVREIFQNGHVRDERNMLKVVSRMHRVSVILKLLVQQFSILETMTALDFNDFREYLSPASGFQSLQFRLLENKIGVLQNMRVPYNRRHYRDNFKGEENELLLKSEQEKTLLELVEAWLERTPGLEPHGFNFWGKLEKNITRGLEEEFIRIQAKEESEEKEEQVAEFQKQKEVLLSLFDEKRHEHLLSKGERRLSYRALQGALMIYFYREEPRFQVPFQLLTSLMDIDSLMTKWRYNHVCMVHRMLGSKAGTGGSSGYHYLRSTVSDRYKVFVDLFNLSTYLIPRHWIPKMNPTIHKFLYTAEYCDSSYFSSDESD
T1 sequence (P14902 whole entry): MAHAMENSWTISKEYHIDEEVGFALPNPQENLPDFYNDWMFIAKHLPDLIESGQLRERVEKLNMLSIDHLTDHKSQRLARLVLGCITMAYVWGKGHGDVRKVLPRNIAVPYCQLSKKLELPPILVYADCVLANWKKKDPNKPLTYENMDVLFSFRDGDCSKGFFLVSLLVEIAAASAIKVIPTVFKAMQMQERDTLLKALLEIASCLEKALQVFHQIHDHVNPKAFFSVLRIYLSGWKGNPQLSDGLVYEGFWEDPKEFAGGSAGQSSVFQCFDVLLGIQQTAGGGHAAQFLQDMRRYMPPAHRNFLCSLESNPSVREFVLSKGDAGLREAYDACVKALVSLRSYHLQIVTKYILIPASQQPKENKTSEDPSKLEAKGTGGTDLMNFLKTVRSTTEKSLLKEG

As for `CC(=O)Nc1cccc(C(=O)N[C@H]2[C@@H]3C[C@@](O)(c4cc(Cl)cc5[nH]ncc45)C[C@@H]32)c1` [Example 151, 3-acetamido-N-((1R,3r,5S,6r)-3-(6-chloro-1H-indazol-4-yl)-3-hydroxybicyclo[3.1.0]hexan-6-yl)benzamide], the half-inhibitory concentration (IC50) – broadly, the midpoint of a concentration-inhibition curve – in experiment [1] was 1000 to 5000 nM; in experiment [2], at most 500 nM.

`O=C(N[C@H]1[C@@H]2C[C@@](O)(c3cc(Cl)cc4[nH]ncc34)C[C@@H]21)c1cc(F)cc(Cl)c1` [Example 152, 3-chloro-N-((1R,3r,5S,6r)-3-(6-chloro-1H-indazol-4-yl)-3-hydroxybicyclo[3.1.0]hexan-6-yl)-5-fluorobenzamide]: the IC50 was 500 to 1000 nM in experiment [1] and at most 500 nM in experiment [2].

As for `CS(=O)(=O)c1cccc(C(=O)N[C@H]2[C@@H]3C[C@@](O)(c4cc(Cl)cc5[nH]ncc45)C[C@@H]32)c1` [Example 153, N-((1R,3r,5S,6r)-3-(6-chloro-1H-indazol-4-yl)-3-hydroxybicyclo[3.1.0]hexan-6-yl)-3-(methylsulfonyl)benzamide], the IC50 in experiment [1] is 1000 to 5000 nM; in experiment [2], at most 500 nM.

On to `Cc1cc(C(=O)N[C@H]2[C@@H]3C[C@@](O)(c4cc(Cl)cc5[nH]ncc45)C[C@@H]32)no1` [Example 154, N-((1R,3r,5S,6r)-3-(6-chloro-1H-indazol-4-yl)-3-hydroxybicyclo[3.1.0]hexan-6-yl)-5-methylisoxazole-3-carboxamide], for which the IC50 was 500 to 1000 nM in experiment [1] and at most 500 nM in experiment [2].

As to `Cn1cc(C(=O)N[C@H]2[C@@H]3C[C@@](O)(c4cc(Cl)cc5[nH]ncc45)C[C@@H]32)cn1` [Example 155, N-((1R,3r,5S,6r)-3-(6-chloro-1H-indazol-4-yl)-3-hydroxybicyclo[3.1.0]hexan-6-yl)-1-methyl-1H-pyrazole-4-carboxamide], the values for the IC50 in experiment [1] and in experiment [2] were 1000 to 5000 nM and at most 500 nM, respectively.

With `O=C(N[C@H]1[C@@H]2C[C@@](O)(c3cc(Cl)cc4[nH]ncc34)C[C@@H]21)c1ccnc(C(F)(F)F)c1` [Example 156, N-((1R,3r,5S,6r)-3-(6-chloro-1H-indazol-4-yl)-3-hydroxybicyclo[3.1.0]hexan-6-yl)-2-(trifluoromethyl)isonicotinamide], the half-inhibitory concentration (IC50) in experiment [1] and in experiment [2] was at most 500 nM each time.

For `NC(=O)c1cccc(C(=O)N[C@H]2[C@@H]3C[C@@](O)(c4cc(Cl)cc5[nH]ncc45)C[C@@H]32)c1` [Example 157, N1-((1R,3r,5S,6r)-3-(6-chloro-1H-indazol-4-yl)-3-hydroxybicyclo[3.1.0]hexan-6-yl)isophthalamide], the concentration for half-maximal inhibition (IC50) in experiment [1] was over 5000 nM; in experiment [2] it was at most 500 nM.

Turning to `O=C(N[C@H]1[C@@H]2C[C@@](O)(c3cc(Cl)cc4[nH]ncc34)C[C@@H]21)c1cnoc1` [Example 158, N-((1R,3r,5S,6r)-3-(6-chloro-1H-indazol-4-yl)-3-hydroxybicyclo[3.1.0]hexan-6-yl)isoxazole-4-carboxamide], the concentration for half-maximal inhibition (IC50) in experiment [1] is over 5000 nM; in experiment [2] it was 1000 to 5000 nM.

`O=C(N[C@H]1[C@@H]2C[C@@](O)(c3cc(Cl)cc4[nH]ncc34)C[C@@H]21)c1cnon1` [Example 159, N-((1R,3r,5S,6r)-3-(6-chloro-1H-indazol-4-yl)-3-hydroxybicyclo[3.1.0]hexan-6-yl)-1,2,5-oxadiazole-3-carboxamide]: the IC50 in experiment [1] is over 5000 nM; in experiment [2], at most 500 nM.

As to `O=S(=O)(NC1CC1)N[C@H]1[C@@H]2C[C@@](O)(c3cc(Cl)cc4[nH]ncc34)C[C@@H]21` [Example 160, N′-cyclopropyl-N-((1R,3r,5S,6r)-3-(6-chloro-1H-indazol-4-yl)-3-hydroxybicyclo[3.1.0]hexan-6-yl)sulfuric diamide], the IC50 was 1000 to 5000 nM in experiment [1] and at most 500 nM in experiment [2].

For `O=C(N[C@H]1[C@@H]2C[C@@](O)(c3cc(Cl)cc4[nH]ncc34)C[C@@H]21)c1ccnc(OC(F)(F)F)c1` [Example 161, N-((1R,3r,5S,6r)-3-(6-chloro-1H-indazol-4-yl)-3-hydroxybicyclo[3.1.0]hexan-6-yl)-2-(trifluoromethoxy)isonicotinamide], the concentration for half-maximal inhibition (IC50) in experiment [1] and in experiment [2] was at most 500 nM in each case.

`CNS(=O)(=O)N[C@H]1[C@@H]2C[C@@](O)(c3cc(C(F)(F)F)cc4[nH]ncc34)C[C@@H]21` [Example 162, N′-methyl-N-((1R,3r,5S,6r)-3-hydroxy-3-(6-(trifluoromethyl)-1H-indazol-4-yl)bicyclo[3.1.0]hexan-6-yl)sulfuric diamide]: the IC50 in experiment [1] and in experiment [2] was at most 500 nM throughout.

As for `O=C(N[C@H]1[C@@H]2C[C@@](O)(c3cc(C(F)(F)F)cc4[nH]ncc34)C[C@@H]21)c1cccc(Cl)c1` [Example 163, 3-chloro-N-((1R,3r,5S,6r)-3-hydroxy-3-(6-(trifluoromethyl)-1H-indazol-4-yl)bicyclo[3.1.0]hexan-6-yl)benzamide], the IC50 in experiment [1] and in experiment [2] was at most 500 nM throughout.

On to `CC(=O)N[C@H]1[C@@H]2C[C@@](O)(c3cc(C(F)(F)F)cc4[nH]ncc34)C[C@@H]21` [Example 164, N-((1R,3r,5S,6r)-3-hydroxy-3-(6-(trifluoromethyl)-1H-indazol-4-yl)bicyclo[3.1.0]hexan-6-yl)acetamide], for which the figures for the IC50 in experiment [1] and in experiment [2] were over 5000 nM and at most 500 nM, respectively.

As for `O=C(Nc1ccc(Cl)cc1)N1C[C@@H]2C[C@@](O)(c3cc(Cl)cc4[nH]ncc34)C[C@@H]2C1` [Example 165, (3aR,5r,6aS)-5-(6-chloro-1H-indazol-4-yl)-N-(4-chlorophenyl)-5-hydroxyhexahydrocyclopenta[c]pyrrole-2(1H)-carboxamide], the 50% inhibitory concentration (IC50) in experiment [1] is 1000 to 5000 nM; in experiment [2], at most 500 nM.

Take `O=C(N[C@H]1C[C@@H]2C[C@@](O)(c3cc(Cl)cc4[nH]ncc34)C[C@@H]2C1)c1cccc(Cl)c1` [Example 166, 3-chloro-N-((2r,3aR,5r,6aS)-5-(6-chloro-1H-indazol-4-yl)-5-hydroxyoctahydropentalen-2-yl)benzamide]: the half-maximal inhibitory concentration (IC50) in experiment [1] is 500 to 1000 nM; in experiment [2], at most 500 nM.

On to `CC(=O)N[C@H]1C[C@@H]2C[C@@](O)(c3cc(Cl)cc4[nH]ncc34)C[C@@H]2C1` [Example 167, N-((2r,3aR,5r,6aS)-5-(6-chloro-1H-indazol-4-yl)-5-hydroxyoctahydropentalen-2-yl)acetamide], for which the IC50 in experiment [1] was over 5000 nM; in experiment [2] it was at most 500 nM.

On to `O=C(N[C@H]1[C@@H]2C[C@@](O)(c3cc(Cl)cc4[nH]ncc34)C[C@@H]21)c1ccc(F)c(F)c1` [Example 168, N-((1R,3r,5S,6r)-3-(6-chloro-1H-indazol-4-yl)-3-hydroxybicyclo[3.1.0]hexan-6-yl)-3,4-difluorobenzamide], for which the IC50 in experiment [1] and in experiment [2] was at most 500 nM in each case.

As for `O=C(N[C@H]1[C@@H]2C[C@@](O)(c3cc(Cl)cc4[nH]ncc34)C[C@@H]21)c1ccnc2ccccc12` [Example 169, N-((1R,3r,5S,6r)-3-(6-chloro-1H-indazol-4-yl)-3-hydroxybicyclo[3.1.0]hexan-6-yl)quinoline-4-carboxamide], the results for the half-maximal inhibitory concentration (IC50) in experiment [1] and in experiment [2] were 1000 to 5000 nM and at most 500 nM, respectively.

With `O=C(N[C@H]1[C@@H]2C[C@@](O)(c3cc(Cl)cc4[nH]ncc34)C[C@@H]21)c1cncc(Br)c1` [Example 170, 5-bromo-N-((1R,3r,5S,6r)-3-(6-chloro-1H-indazol-4-yl)-3-hydroxybicyclo[3.1.0]hexan-6-yl)nicotinamide], the concentration for half-maximal inhibition (IC50) in experiment [1] and in experiment [2] was at most 500 nM throughout.

Turning to `O=C(N[C@H]1[C@@H]2C[C@@](O)(c3cc(Cl)cc4[nH]ncc34)C[C@@H]21)c1cccc(-c2ccccc2)c1` [Example 171, N-((1R,3r,5S,6r)-3-(6-chloro-1H-indazol-4-yl)-3-hydroxybicyclo[3.1.0]hexan-6-yl)-[1,1′-biphenyl]-3-carboxamide], the IC50 in experiment [1] is 500 to 1000 nM; in experiment [2] it was at most 500 nM.

Turning to `O=C(N[C@H]1[C@@H]2C[C@@](O)(c3cc(Cl)cc4[nH]ncc34)C[C@@H]21)c1ccc(F)c(C(F)(F)F)c1` [Example 172, N-((1R,3r,5S,6r)-3-(6-chloro-1H-indazol-4-yl)-3-hydroxybicyclo[3.1.0]hexan-6-yl)-4-fluoro-3-(trifluoromethyl)benzamide], the IC50 in experiment [1] and in experiment [2] was at most 500 nM each time.

As for `O=C(N[C@H]1[C@@H]2C[C@@](O)(c3cc(Cl)cc4[nH]ncc34)C[C@@H]21)c1cncc(F)c1` [Example 173, N-((1R,3r,5S,6r)-3-(6-chloro-1H-indazol-4-yl)-3-hydroxybicyclo[3.1.0]hexan-6-yl)-5-fluoronicotinamide], the IC50 is 500 to 1000 nM in experiment [1] and at most 500 nM in experiment [2].

Regarding `C#Cc1cccc(C(=O)N[C@H]2[C@@H]3C[C@@](O)(c4cc(Cl)cc5[nH]ncc45)C[C@@H]32)c1` [Example 174, N-((1R,3r,5S,6r)-3-(6-chloro-1H-indazol-4-yl)-3-hydroxybicyclo[3.1.0]hexan-6-yl)-3-ethynylbenzamide], the IC50 in experiment [1] and in experiment [2] was at most 500 nM throughout.

As for `O=C(Cc1ccc(Cl)cc1)N1C[C@@H]2C[C@@](O)(c3cc(Cl)cc4[nH]ncc34)C[C@@H]2C1` [Example 175, 1-((3aR,5r,6aS)-5-(6-chloro-1H-indazol-4-yl)-5-hydroxyhexahydrocyclopenta[c]pyrrol-2(1H)-yl)-2-(4-chlorophenyl)ethanone], the values for the IC50 in experiment [1] and in experiment [2] were 1000 to 5000 nM and at most 500 nM, respectively.
